# EP0426075A1, “Benzylpyrrolidine derivatives as dopamine agonists” (SYNTEX (U.S.A.) INC., priority 1989, dated 1991)
# Tests used:
# [1] = test system: saline-loaded spontaneously hypertensive rat (SHR); assay: Spontaneous Hypertensive Rat - diuretic activity, saline-loaded, oral; type: in vivo; details: for Urine K^+ (mEq/sample) / Urine Na^+ (mEq/sample) / Urine Volume: n = 7, mean ± S.D.
# Procedure: Additionally, these compounds were examined for diuretic activity for 6 hours following oral compound administration in the saline-loaded spontaneously hypertensive rat (SHR). Methods for this assay have been previously described (Rosenkranz, et al, Proc. West. Pharmacol. Soc. 28 :87, 1985). The diuretic and natriuretic effects elicited by these compounds were characterized by an immediate onset of action.
# The compounds of this invention were examined for diuretic activity for 6 hours following oral compound administration in the saline-loaded spontaneously hypertensive rat (SHR). Methods for this assay have been previously described (Rosenkranz, et al, Proc. West. Pharmacol. Soc. 28 :87, 1985). The diuretic and natriuretic effects elicited by these compounds were characterized by an immediate onset of action.
# Male spontaneously hypertensive SHR/NCrIBR rats weighing 320-430 gms were divided into four groups of seven animals. All animals were food- and water-deprived overnight. The following morning, each group of rats was hydrated with deionized water (20 ml/kg, po) forty-five minutes prior to the administration of vehicle or the test compounds.
# Following vehicle or drug, the rats were placed in individual metabolic units. Fifteen minutes post-dose the animals were saline-loaded (30 ml/kg, po). Urine was collected at 1, 3 and 6 hour intervals post-saline- load. Urine volumes were measured and sodium and potassium levels were determined by flame photometry.
# A two-way analysis of variance with time, treatment and their interaction was run as a repeated measures analysis. A secondary model of one-way analysis of variance (by time) was run using specified contrasts. The p-values for the contrasts were adjusted using Fisher's LSD strategy at each time point.
# [2] = test system: conscious restrained spontaneously hypertensive rat; assay: Spontaneous Hypertensive Rats - antihypertensive activity, conscious restrained, oral; type: in vivo; details: for Peak decreases, mean blood pressure / Peak decreases, systolic blood pressure / heart rate following administration / duration of action: SHR, oral; for duration of action: blood pressure decrease; for Diastolic Blood Pressure (mm Hg) / Heart Rate (beats/ min) / Mean Blood Pressure (mm Hg) / Systolic Blood Pressure (mm Hg): change from control (XΔ ± SD), n = 4
# Procedure: Finally, these compounds were screened for oral antihypertensive activity in the conscious restrained rat. Adult male SHR were instrumented for blood pressure and heart rate measurements under light ether anesthesia. The animals were maintained on a plexiglass restraining board following surgery, and were allowed a 1 hour recovery period prior to the oral administration of the test compounds.
# The compounds of this invention were screened for oral antihypertensive activity in the conscious restrained spontaneously hypertensive rat.
# Male spontaneously hypertensive rats, SHR/NCrIBr (320-410 g) were fasted overnight. The following morning the left femoral artery and vein of each rat was cannulated under light ether anesthesia. Following surgery, the rats were placed on a rat restraining board and allowed to recover from the effects of the ether for 1 hour. ECG leads were placed on the animal's chest to monitor heart rate. Animals were divided into groups of 4 and dosed with the test compounds.
# Blood pressure and heart rate readings were taken at 5 minute intervals for the first 15 minutes and […] thereafter for a duration of 4 hour post-compound administration. Data was evaluated by two- tailed paired t-tests.
# [3] = po 3 mg/kg, cumulative time 1 hr
# [4] = po 3 mg/kg, cumulative time 3 hr
# [5] = po 3 mg/kg, cumulative time 6 hr
# [6] = po 10 mg/kg, cumulative time 1 hr
# [7] = po 10 mg/kg, cumulative time 3 hr
# [8] = po 10 mg/kg, cumulative time 6 hr
# [9] = po 30 mg/kg, cumulative time 1 hr
# [10] = po 30 mg/kg, cumulative time 3 hr
# [11] = po 30 mg/kg, cumulative time 6 hr
smiles,measurement,setting,value
"Br.Br.CCCN(CCCCCCN1CCC[C@@H]1Cc1ccc(O)c(O)c1)CCc1ccc(O)cc1 [Test Compound 1, (R)-2-(3,4-dihydroxybenzyl)-1-[6-(N-(4-hydroxyphenethyl)-N-propylamino)hexyl]pyrrolidine dihydrobromide]",kaliuresis,"[1]; 30 mg/kg, po, 1, 3, and 6 hour post-dose time points",significant kaliuresis
same,Urine K^+ (mEq/sample),[1]; [3],0.03±0.04 mEq/sample
same,Urine Na^+ (mEq/sample),[1]; [3],0.02±0.02 mEq/sample
same,Urine Volume,[1]; [3],4.6 ± 1.9 mL
same,Urine K^+ (mEq/sample),[1]; [4],0.11±0.05 mEq/sample
same,Urine Na^+ (mEq/sample),[1]; [4],0.07±0.03 mEq/sample
same,Urine Volume,[1]; [4],7.8 ± 1.4 mL
same,Urine K^+ (mEq/sample),[1]; [5],0.20±0.07 mEq/sample
same,Urine Na^+ (mEq/sample),[1]; [5],0.25±0.10 mEq/sample
same,Urine Volume,[1]; [5],9.4 ± 1.8 mL
same,Urine K^+ (mEq/sample),[1]; [6],0.06±0.03 mEq/sample
same,Urine Na^+ (mEq/sample),[1]; [6],0.28±0.13 mEq/sample
same,Urine Volume,[1]; [6],9.9 ± 3.6 mL
same,Urine K^+ (mEq/sample),[1]; [7],0.16±0.08 mEq/sample
same,Urine Na^+ (mEq/sample),[1]; [7],0.51±0.22 mEq/sample
same,Urine Volume,[1]; [7],11.4 ± 3.9 mL
same,Urine K^+ (mEq/sample),[1]; [8],0.22±0.11 mEq/sample
same,Urine Na^+ (mEq/sample),[1]; [8],0.51±0.27 mEq/sample
same,Urine Volume,[1]; [8],11.8 ± 3.9 mL
same,Urine K^+ (mEq/sample),[1]; [9],0.07±0.02 mEq/sample
same,Urine Na^+ (mEq/sample),[1]; [9],0.61±0.16 mEq/sample
same,Urine Volume,[1]; [9],14.7 ± 2.3 mL
same,Urine K^+ (mEq/sample),[1]; [10],0.24±0.05 mEq/sample
same,Urine Na^+ (mEq/sample),[1]; [10],1.13±0.25 mEq/sample
same,Urine Volume,[1]; [10],18.6 ± 2.8 mL
same,Urine K^+ (mEq/sample),[1]; [11],0.31±0.06 mEq/sample
same,Urine Na^+ (mEq/sample),[1]; [11],1.31±0.27 mEq/sample
same,Urine Volume,[1]; [11],19.3 ± 2.7 mL
same,"Peak decreases, mean blood pressure",[2],about 20%
same,"Peak decreases, systolic blood pressure",[2],about 20%
same,heart rate following administration,[2],not significantly altered
same,duration of action,[2],up to 4 hours
"Br.Br.CCCN(CCCCCCN1CCC[C@@H]1Cc1ccc(O)c(O)c1)CCc1cccc(O)c1 [Test Compound 2, (R)-2-(3,4-dihydroxybenzyl)-1-[6-(N-(3-hydroxyphenethyl)-N-propylamino)hexyl]pyrrolidine dihydrobromide]",Urine K^+ (mEq/sample),[1]; [3],0.02±0.01 mEq/sample
same,Urine Na^+ (mEq/sample),[1]; [3],0.00±0.00 mEq/sample
same,Urine Volume,[1]; [3],5.2 ± 1.4 mL
same,Urine K^+ (mEq/sample),[1]; [4],0.09±0.04 mEq/sample
same,Urine Na^+ (mEq/sample),[1]; [4],0.06±0.04 mEq/sample
same,Urine Volume,[1]; [4],7.9 ± 0.7 mL
same,Urine K^+ (mEq/sample),[1]; [5],0.17±0.05 mEq/sample
same,Urine Na^+ (mEq/sample),[1]; [5],0.19±0.07 mEq/sample
same,Urine Volume,[1]; [5],9.1 ± 0.8 mL
same,Urine K^+ (mEq/sample),[1]; [6],0.02±0.01 mEq/sample
same,Urine Na^+ (mEq/sample),[1]; [6],0.09±0.05 mEq/sample
same,Urine Volume,[1]; [6],8.9 ± 1.6 mL
same,Urine K^+ (mEq/sample),[1]; [7],0.10±0.06 mEq/sample
same,Urine Na^+ (mEq/sample),[1]; [7],0.26±0.12 mEq/sample
same,Urine Volume,[1]; [7],11.2 ± 2.0 mL
same,Urine K^+ (mEq/sample),[1]; [8],0.13±0.09 mEq/sample
same,Urine Na^+ (mEq/sample),[1]; [8],0.31±0.17 mEq/sample
same,Urine Volume,[1]; [8],11.7 ± 2.4 mL
same,Urine K^+ (mEq/sample),[1]; [9],0.03±0.02 mEq/sample
same,Urine Na^+ (mEq/sample),[1]; [9],0.16±0.05 mEq/sample
same,Urine Volume,[1]; [9],13.0 ± 2.2 mL
same,Urine K^+ (mEq/sample),[1]; [10],0.13±0.07 mEq/sample
same,Urine Na^+ (mEq/sample),[1]; [10],0.40±0.12 mEq/sample
same,Urine Volume,[1]; [10],15.7 ± 2.1 mL
same,Urine K^+ (mEq/sample),[1]; [11],0.17±0.09 mEq/sample
same,Urine Na^+ (mEq/sample),[1]; [11],1.45±0.12 mEq/sample
same,Urine Volume,[1]; [11],15.9 ± 2.1 mL
same,"Peak decreases, mean blood pressure",[2],17%
same,"Peak decreases, systolic blood pressure",[2],17%
same,heart rate following administration,[2],not significantly altered
same,duration of action,[2],up to 4 hours
same,Diastolic Blood Pressure (mm Hg),"[2]; po 3 mg/kg, 1 hour",-8 ± 12 mm Hg
same,Heart Rate (beats/ min),"[2]; po 3 mg/kg, 1 hour",-5 ± 12 beats/ min
same,Mean Blood Pressure (mm Hg),"[2]; po 3 mg/kg, 1 hour",-12 ± 18 mm Hg
same,Systolic Blood Pressure (mm Hg),"[2]; po 3 mg/kg, 1 hour",-13 ± 25 mm Hg
same,Diastolic Blood Pressure (mm Hg),"[2]; po 3 mg/kg, 2 hours",-6 ± 3 mm Hg
same,Heart Rate (beats/ min),"[2]; po 3 mg/kg, 2 hours",5 ± 11 beats/ min
same,Mean Blood Pressure (mm Hg),"[2]; po 3 mg/kg, 2 hours",-7 ± 8 mm Hg
same,Systolic Blood Pressure (mm Hg),"[2]; po 3 mg/kg, 2 hours",-9 ± 13 mm Hg
same,Diastolic Blood Pressure (mm Hg),"[2]; po 3 mg/kg, 3 hours",-4 ± 17 mm Hg
same,Heart Rate (beats/ min),"[2]; po 3 mg/kg, 3 hours",6 ± 18 beats/ min
same,Mean Blood Pressure (mm Hg),"[2]; po 3 mg/kg, 3 hours",-8 ± 14 mm Hg
same,Systolic Blood Pressure (mm Hg),"[2]; po 3 mg/kg, 3 hours",-19 ± 22 mm Hg
same,Diastolic Blood Pressure (mm Hg),"[2]; po 3 mg/kg, 4 hours",-9 ± 7 mm Hg
same,Heart Rate (beats/ min),"[2]; po 3 mg/kg, 4 hours",10 ± 23 beats/ min
same,Systolic Blood Pressure (mm Hg),"[2]; po 3 mg/kg, 4 hours",-29 ± 19 mm Hg
same,Diastolic Blood Pressure (mm Hg),"[2]; po 10 mg/kg, 1 hour",-19 ± 3 mm Hg
same,Heart Rate (beats/ min),"[2]; po 10 mg/kg, 1 hour",-11 ± 6 beats/ min
same,Mean Blood Pressure (mm Hg),"[2]; po 10 mg/kg, 1 hour",-21 ± 3 mm Hg
same,Systolic Blood Pressure (mm Hg),"[2]; po 10 mg/kg, 1 hour",-26 ± 6 mm Hg
same,Diastolic Blood Pressure (mm Hg),"[2]; po 10 mg/kg, 2 hours",-11 ± 21 mm Hg
same,Heart Rate (beats/ min),"[2]; po 10 mg/kg, 2 hours",-6 ± 8 beats/ min
same,Mean Blood Pressure (mm Hg),"[2]; po 10 mg/kg, 2 hours",-21 ± 8 mm Hg
same,Systolic Blood Pressure (mm Hg),"[2]; po 10 mg/kg, 2 hours",-28 ± 10 mm Hg
same,Diastolic Blood Pressure (mm Hg),"[2]; po 10 mg/kg, 3 hours",-19 ± 8 mm Hg
same,Heart Rate (beats/ min),"[2]; po 10 mg/kg, 3 hours",-5 ± 11 beats/ min
same,Mean Blood Pressure (mm Hg),"[2]; po 10 mg/kg, 3 hours",-27 ± 4 mm Hg
same,Systolic Blood Pressure (mm Hg),"[2]; po 10 mg/kg, 3 hours",-36 ± 23 mm Hg
same,Diastolic Blood Pressure (mm Hg),"[2]; po 10 mg/kg, 4 hours",-16 ± 7 mm Hg
same,Heart Rate (beats/ min),"[2]; po 10 mg/kg, 4 hours",1 ± 3 beats/ min
same,Mean Blood Pressure (mm Hg),"[2]; po 10 mg/kg, 4 hours",-22 ± 12 mm Hg
same,Systolic Blood Pressure (mm Hg),"[2]; po 10 mg/kg, 4 hours",-31 ± 20 mm Hg
same,Diastolic Blood Pressure (mm Hg),"[2]; po 30 mg/kg, 1 hour",-6 ± 5 mm Hg
same,Heart Rate (beats/ min),"[2]; po 30 mg/kg, 1 hour",-1 ± 10 beats/ min
same,Mean Blood Pressure (mm Hg),"[2]; po 30 mg/kg, 1 hour",-5 ± 9 mm Hg
same,Systolic Blood Pressure (mm Hg),"[2]; po 30 mg/kg, 1 hour",-4 ± 14 mm Hg
same,Diastolic Blood Pressure (mm Hg),"[2]; po 30 mg/kg, 2 hours",-17 ± 6 mm Hg
same,Heart Rate (beats/ min),"[2]; po 30 mg/kg, 2 hours",9 ± 10 beats/ min
same,Mean Blood Pressure (mm Hg),"[2]; po 30 mg/kg, 2 hours",-14 ± 14 mm Hg
same,Systolic Blood Pressure (mm Hg),"[2]; po 30 mg/kg, 2 hours",-18 ± 10 mm Hg
same,Diastolic Blood Pressure (mm Hg),"[2]; po 30 mg/kg, 3 hours",-15 ± 5 mm Hg
same,Heart Rate (beats/ min),"[2]; po 30 mg/kg, 3 hours",18 ± 15 beats/ min
same,Mean Blood Pressure (mm Hg),"[2]; po 30 mg/kg, 3 hours",-17 ± 11 mm Hg
same,Systolic Blood Pressure (mm Hg),"[2]; po 30 mg/kg, 3 hours",-26 ± 17 mm Hg
same,Diastolic Blood Pressure (mm Hg),"[2]; po 30 mg/kg, 4 hours",-20 ± 9 mm Hg
same,Heart Rate (beats/ min),"[2]; po 30 mg/kg, 4 hours",20 ± 16 beats/ min
same,Systolic Blood Pressure (mm Hg),"[2]; po 30 mg/kg, 4 hours",-32 ± 20 mm Hg
